This passage reports IC50 results from patent publication US20250289804A1, “SUBSTITUTED INDOLE COMPOUNDS AND METHODS OF USE THEREOF” (NOVARTIS PHARMA AG, priority 2021, published 2025).

For assay [1], the system named is MAC formation in normal human serum. The assay can be described thus: Human serum MAC formation assay (zymosan-coated plates, 50% normal human serum). The conditions noted are these: 50% normal human serum with EGTA, 37° C. 30 minutes. On the procedure: MAC deposition assay using normal human serum was applied to evaluate compound potency under physiologically relevant conditions. Black Maxisorp plates (Thermo Fisher, 437111) were coated with preactivated zymosan (Complement Technology, B400) at 0.5 mg/mL in carbonate buffer (pH 9.5, Sigma, C3041) at room temperature overnight. Compounds were serial diluted 3-fold in 100% DMSO for a 10-point dose-response curve. Normal human serum (Complement Technology, NHS) was diluted to 50% (v/v) with the gelatin buffer (4.2 mM HEPES pH 7.4, 0.15 mM CaCl2, 141 mM NaCl, 4.5 mM MgCl2, 0.1% gelatin) containing 20 mM EGTA or 20 mM EDTA. In conical bottom 96-well plates, 1 μL compound and 99 μL of serum-EGTA were mixed. Serum-EDTA was used as baseline control. The serum-compound mixture was incubated at room temperature for 15 minutes before being transferred to the washed zymosan plate for complement activation at 37° C. for 30 minutes. The reaction was terminated by decanting the reaction mixture and adding blocking buffer (Thermo Fisher, 37539) for 20 minutes. MAC formation on the ELISA plate was detected using 0.2 μg/mL mouse anti-human C9 neoepitope monoclonal antibody (Thermo Fisher, MA5-33373) diluted in phosphate-buffered saline with 0.05% Tween-20 (PBST). A goat anti-mouse IgG-HRP antibody (Thermo Fisher, A16072) was used at 1:2000 in PBST as secondary antibody. After washing, the reaction was developed using QuantaBlu (Thermo Fisher, 15169) for 20 minutes at room temperature. The plates were read at 325 nm excitation and 420 nm emission wavelengths. Percent inhibition values were generated using the baseline (EDTA-serum) and the maximum control (EGTA-serum). An IC50 for each compound was calculated using 4-parameter logistic regression.

For another assay, the target named is human C3bBb (Homo sapiens (Human), UniProt P00751). The assay can be described thus: Human C3bBb enzyme assay (C3a generation from C3, ELISA). The format is biochemical. The conditions noted are these: read-out: Human C3b:Bb IC50 Avg. The method, then:
Compounds disclosed herein were evaluated for their potency to inhibit human C3bBb in a biochemical assay. To generate active C3bBb complex in vitro, purified human C3b (Complement Technology, A114), CFB (Complement Technology, A135) and CFD (Complement Technology, A136) were mixed in a 1:1:1 ratio to a final concentration of 1 μM each in the C3bBb assay buffer (PBS pH 7.4, 100 μM NiCl2, 0.05% (w/v) CHAPS). The reaction mix was incubated at room temperature for 30 minutes on a rotating platform. […] On the day of the enzyme assay, a reaction mixture containing 3 nM C3bBb complex and 1 μM purified human C3 (Complement Technology, A113) was prepared in the C3bBb assay buffer. Compounds were serial diluted 3-fold in 100% DMSO for a 10-point dose-response curve. A 0.5 μL aliquot of diluted compound solution was transferred to a conical bottom 96-well plate, before 49.5 μL of the reaction mix was added to each well to initiate the reaction. The plate was incubated for 1 hour at room temperature. […] The generation of C3a from C3 by the C3bBb complex was measured using the MicroVue C3a Plus EIA ELISA kit (Quidel, A031). The concentration of C3a from each well was calculated using a standard curve. Percent inhibition values were generated using the baseline (C3 only) and the maximum control (DMSO instead of compound), and IC50 of each compound was calculated using 4-parameter logistic regression.
A general note: An ELISA detects its analyte on a solid surface through an enzyme-linked reagent.

The mark [2] stands for this setting: starred values: assay conducted with 1 nM C3b:Bb enzyme.
Where [3] appears, read: 3 nM C3bBb complex, 1 μM human C3, 1 hour room temperature.

Like-named read-outs stand apart in the source and are kept apart here. Some results are limits rather than exact numbers.

human C3bBb, sequence (P00751 260-764): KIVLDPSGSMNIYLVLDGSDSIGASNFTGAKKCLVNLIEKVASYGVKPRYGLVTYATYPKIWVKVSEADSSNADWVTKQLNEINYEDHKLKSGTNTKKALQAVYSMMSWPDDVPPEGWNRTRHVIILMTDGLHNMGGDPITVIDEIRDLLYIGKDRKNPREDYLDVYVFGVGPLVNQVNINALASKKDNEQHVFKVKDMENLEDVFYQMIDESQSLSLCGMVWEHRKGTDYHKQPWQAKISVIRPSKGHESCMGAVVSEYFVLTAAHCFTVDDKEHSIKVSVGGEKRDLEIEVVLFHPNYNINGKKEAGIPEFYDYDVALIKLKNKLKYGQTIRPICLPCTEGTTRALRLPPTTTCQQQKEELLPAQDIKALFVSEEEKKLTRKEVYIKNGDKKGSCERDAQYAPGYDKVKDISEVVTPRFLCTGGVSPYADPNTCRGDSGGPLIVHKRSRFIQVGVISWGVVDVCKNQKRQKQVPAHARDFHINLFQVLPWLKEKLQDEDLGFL
human C3bBb, sequence (P01024 23-667 partner): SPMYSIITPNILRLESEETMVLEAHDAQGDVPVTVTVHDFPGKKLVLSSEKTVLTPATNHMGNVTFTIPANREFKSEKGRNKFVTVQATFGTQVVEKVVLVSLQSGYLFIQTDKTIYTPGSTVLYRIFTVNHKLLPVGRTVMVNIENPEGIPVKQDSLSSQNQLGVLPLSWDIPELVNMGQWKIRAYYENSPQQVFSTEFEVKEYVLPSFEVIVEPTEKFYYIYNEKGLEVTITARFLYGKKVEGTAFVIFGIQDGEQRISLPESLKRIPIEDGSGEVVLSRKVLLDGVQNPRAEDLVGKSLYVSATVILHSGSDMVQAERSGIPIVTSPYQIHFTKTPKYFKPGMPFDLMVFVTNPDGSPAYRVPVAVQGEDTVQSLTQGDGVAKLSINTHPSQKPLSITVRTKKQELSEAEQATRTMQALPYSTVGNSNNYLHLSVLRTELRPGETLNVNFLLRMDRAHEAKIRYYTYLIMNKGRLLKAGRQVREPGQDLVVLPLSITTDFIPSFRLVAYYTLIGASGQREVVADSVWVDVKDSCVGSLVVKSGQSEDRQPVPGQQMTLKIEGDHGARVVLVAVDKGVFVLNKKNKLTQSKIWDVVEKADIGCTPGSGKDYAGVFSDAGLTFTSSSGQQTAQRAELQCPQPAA
human C3bBb, sequence (P01024 749-1663 partner): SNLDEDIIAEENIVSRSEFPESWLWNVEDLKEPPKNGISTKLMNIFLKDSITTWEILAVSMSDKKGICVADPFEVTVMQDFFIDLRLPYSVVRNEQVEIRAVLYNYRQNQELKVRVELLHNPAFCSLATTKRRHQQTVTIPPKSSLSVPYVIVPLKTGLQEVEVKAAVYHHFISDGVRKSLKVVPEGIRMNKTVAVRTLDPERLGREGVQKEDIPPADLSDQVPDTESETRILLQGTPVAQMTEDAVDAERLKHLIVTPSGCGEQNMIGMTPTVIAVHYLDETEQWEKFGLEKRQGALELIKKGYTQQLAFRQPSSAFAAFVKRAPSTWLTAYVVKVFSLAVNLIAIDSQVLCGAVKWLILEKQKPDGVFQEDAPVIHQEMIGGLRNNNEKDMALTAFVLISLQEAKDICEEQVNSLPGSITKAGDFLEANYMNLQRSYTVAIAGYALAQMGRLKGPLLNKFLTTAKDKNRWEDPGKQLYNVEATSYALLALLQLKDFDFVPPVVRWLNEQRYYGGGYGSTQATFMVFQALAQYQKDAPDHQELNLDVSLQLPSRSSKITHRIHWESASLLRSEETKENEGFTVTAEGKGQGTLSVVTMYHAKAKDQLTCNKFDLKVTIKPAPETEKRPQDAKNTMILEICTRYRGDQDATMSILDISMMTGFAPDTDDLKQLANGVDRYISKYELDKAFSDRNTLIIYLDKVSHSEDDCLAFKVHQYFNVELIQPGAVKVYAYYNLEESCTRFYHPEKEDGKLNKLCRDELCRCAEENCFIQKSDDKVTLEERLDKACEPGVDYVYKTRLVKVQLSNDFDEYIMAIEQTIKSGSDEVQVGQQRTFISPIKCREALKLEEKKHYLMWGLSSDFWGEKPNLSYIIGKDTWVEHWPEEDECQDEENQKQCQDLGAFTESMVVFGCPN

Usually IC50 stands for the concentration needed to halve the response being measured. Turning to `COc1cc(C)c2[nH]ccc2c1CN1CC[C@]2(C[C@H]1c1ccc(C(=O)O)cc1)C[C@@H](F)C2` (single isomer, unassigned) [Example 63, 4-((2R,4s,6S)-2-fluoro-7-((5-methoxy-7-methyl-1H-indol-4-yl)methyl)-7-azaspiro[3.5]nonan-6-yl)benzoic acid or 4-((2S,4r,6S)-2-fluoro-7-((5-methoxy-7-methyl-1H-indol-4-yl)methyl)-7-azaspiro[3.5]nonan-6-yl)benzoic acid], the IC50 in assay [1] was below 100 nM; on human C3bBb (setting [2]), below 10 nM.
Turning to `COc1cc(C)c2[nH]ccc2c1CN1CC[C@@]2(C[C@H]1c1ccc(C(=O)O)cc1)CC2(F)F` (stereo in doubt) [Example 30, 4-((3R,5S)- or ((3S,5S)-1,1-difluoro-6-((5-methoxy-7-methyl-1H-indol-4-yl)methyl)-6-azaspiro[2.5]octan-5-yl)benzoic acid], the results for the IC50 (in assay [1]; on human C3bBb (setting [2])) were 100 to 200 nM and below 10 nM, respectively.
As to `COc1cc(C)c2[nH]ccc2c1CN1CC[C@]2(C[C@H]1c1ccc(C(=O)O)cc1)C[C@@H](O)C2` (stereo in doubt) [Example 64, 4-((2R,4s,6S)-4-(2-hydroxy-7-((5-methoxy-7-methyl-1H-indol-4-yl)methyl)-7-azaspiro[3.5]nonan-6-yl)benzoic acid and 4-((2S,4r,6S)-2-hydroxy-7-((5-methoxy-7-methyl-1H-indol-4-yl)methyl)-7-azaspiro[3.5]nonan-6-yl)benzoic acid], the IC50 was 200 to 300 nM in assay [1] and 10 to 25 nM on human C3bBb (setting [2]).
As to `COc1cc(C)c2[nH]ccc2c1CN1CC[C@H](n2cc(F)cn2)C[C@H]1c1ccc(C(=O)O)cc1` [Example 1, 4-((2S,4S)-4-(4-fluoro-1H-pyrazol-1-yl)-1-((5-methoxy-7-methyl-1H-indol-4-yl)methyl)piperidin-2-yl)benzoic acid], the figures for the IC50 (in assay [1]; on human C3bBb (setting [3])) were above 500 nM and 50 to 100 nM, respectively.
With `COc1cc(C)c2[nH]ccc2c1CN1CC[C@H](n2cc(C(F)(F)F)cn2)C[C@H]1c1ccc(C(=O)O)cc1` [Example 4, 4-((2S,4S)-1-((5-methoxy-7-methyl-1H-indol-4-yl)methyl)-4-(4-(trifluoromethyl)-1H-pyrazol-1-yl)piperidin-2-yl)benzoic acid], the values for the IC50 (in assay [1]; on human C3bBb (setting [3])) were 200 to 300 nM and below 10 nM, respectively.
With `COc1cc(C)c2[nH]ccc2c1CN1CC[C@H](n2cc(Cl)cn2)C[C@H]1c1ccc(C(=O)O)cc1` [Example 8], the IC50 is below 100 nM in assay [1] and below 10 nM on human C3bBb (setting [2]).
On to `COc1cc(C)c2[nH]ccc2c1CN1CC[C@H](n2cc(C#N)cn2)C[C@H]1c1ccc(C(=O)O)cc1` [Example 10, 4-((2S,4S)-4-(4-cyano-1H-pyrazol-1-yl)-1-((5-methoxy-7-methyl-1H-indol-4-yl)methyl)piperidin-2-yl)benzoic acid], for which the IC50 in assay [1] lay within 300 to 500 nM; at human C3bBb (setting [3]) it was 50 to 100 nM.
As for `COc1cc(C)c2[nH]ccc2c1CN1CC[C@H](N2CCCC2=O)C[C@H]1c1ccc(C(=O)O)cc1` [Example 13, 4-((2S,4S)-1-((5-methoxy-7-methyl-1H-indol-4-yl)methyl)-4-(2-oxopyrrolidin-1-yl)piperidin-2-yl)benzoic acid], the IC50 in assay [1] lay in the range of 100 to 200 nM; on human C3bBb (setting [2]) it was 50 to 100 nM.
Consider `COc1cc(C)c2[nH]ccc2c1CN1CC[C@H](NCC(F)(F)F)C[C@H]1c1ccc(C(=O)O)cc1` [Example 15, 4-((2S,4S)-1-((5-methoxy-7-methyl-1H-indol-4-yl)methyl)-4-((2,2,2-trifluoroethyl)amino)piperidin-2-yl)benzoic acid], for which the IC50 in assay [1] is below 100 nM; on human C3bBb (setting [2]), below 10 nM.
On to `COc1cc(C)c2[nH]ccc2c1CN1CC[C@H](NC2COC2)C[C@H]1c1ccc(C(=O)O)cc1` [Example 18, 4-((2S,4S)-1-((5-methoxy-7-methyl-1H-indol-4-yl)methyl)-4-(oxetan-3-ylamino)piperidin-2-yl)benzoic acid], for which the IC50 in assay [1] was 100 to 200 nM; on human C3bBb (setting [2]), below 10 nM.
Turning to `COc1cc(C)c2[nH]ccc2c1CN1CC[C@H](NC2CC(F)(F)C2)C[C@H]1c1ccc(C(=O)O)cc1` [Example 19, 4-((2S,4S)-4-((3,3-difluorocyclobutyl)amino)-1-((5-methoxy-7-methyl-1H-indol-4-yl)methyl)piperidin-2-yl)benzoic acid], the IC50 in assay [1] is below 100 nM; on human C3bBb (setting [2]), below 10 nM.
`COc1cc(C)c2[nH]ccc2c1CN1CC[C@H](NC2CCC2)C[C@H]1c1ccc(C(=O)O)cc1` [Example 20, 4-((2S,4S)-4-(cyclobutylamino)-1-((5-methoxy-7-methyl-1H-indol-4-yl)methyl)piperidin-2-yl)benzoic acid]: the figures for the IC50 (in assay [1]; at human C3bBb (setting [3])) were 300 to 500 nM and 25 to 50 nM, respectively.
With `COc1cc(C)c2[nH]ccc2c1CN1CC[C@H](NC23CC(C2)C3)C[C@H]1c1ccc(C(=O)O)cc1` [Example 21, 4-((2S,4S)-4-(bicyclo[1.1.1]pentan-1-ylamino)-1-((5-methoxy-7-methyl-1H-indol-4-yl)methyl)pyiperidin-2-yl)benzoic acid], the IC50 in assay [1] was 100 to 200 nM; at human C3bBb (setting [3]), above 100 nM.
In the case of `COc1cc(C)c2[nH]ccc2c1CN1CC[C@H](NCC(F)F)C[C@H]1c1ccc(C(=O)O)cc1` [Example 22, 4-((2S,4S)-4-((2,2-difluoroethyl)amino)-1-((5-methoxy-7-methyl-1H-indol-4-yl)methyl)piperidin-2-yl)benzoic acid], the IC50 is 100 to 200 nM in assay [1] and below 10 nM at human C3bBb (setting [2]).
As for `COc1cc(C)c2[nH]ccc2c1CN1CC[C@H](NCC2(F)CC2)C[C@H]1c1ccc(C(=O)O)cc1` [Example 23, 4-((2S,4S)-4-(((1-fluorocyclopropyl)methyl)amino)-1-((5-methoxy-7-methyl-1H-indol-4-yl)methyl)piperidin-2-yl)benzoic acid], the IC50 in assay [1] is 300 to 500 nM; on human C3bBb (setting [2]) it was 50 to 100 nM.
Take `COc1cc(C)c2[nH]ccc2c1CN1CC[C@H](NC2CC(F)(F)C2)C[C@H]1c1ccc(C(=O)O)cc1` [Example 24, 4-((2S,4S)-4-((3,3-difluorocyclobutyl)amino)-1-((5-methoxy-7-methyl-1H-indol-4-yl)methyl)piperidin-2-yl)benzoic acid]: the values for the IC50 (in assay [1]; at human C3bBb (setting [2])) were 200 to 300 nM and 10 to 25 nM, respectively.
The like results for `Cc1cc(C2CC2)c(CN2CC[C@H](NC3CC(F)(F)C3)C[C@H]2c2ccc(C(=O)O)cc2)c2cc[nH]c12` [Example 25, 4-((2S,4S)-1-((5-cyclopropyl-7-methyl-1H-indol-4-yl)methyl)-4-((3,3-difluorocyclobutyl)amino)piperidin-2-yl)benzoic acid] were, in that order, below 100 nM and below 10 nM.
The like results for `COc1cc(C)c2[nH]ccc2c1CN1CC[C@H](NCC2CC2)C[C@H]1c1ccc(C(=O)O)cc1` [Example 26, 4-((2S,4S)-4-((cyclopropylmethyl)amino)-1-((5-methoxy-7-methyl-1H-indol-4-yl)methyl)piperidin-2-yl)benzoic acid] were, in that order, 100 to 200 nM and 50 to 100 nM.
In the case of `COc1cc(C)c2[nH]ccc2c1CN1CC[C@H](OC(F)F)C[C@H]1c1ccc(C(=O)O)cc1` [Example 28, 4-((2S,4S)-4-(difluoromethoxy)-1-((5-methoxy-7-methyl-1H-indol-4-yl)methyl)piperidin-2-yl)benzoic acid], the values for the IC50 (in assay [1]; at human C3bBb (setting [2])) were 100 to 200 nM and below 10 nM, respectively.
Regarding `COc1cc(C)c2[nH]ccc2c1CN1CC[C@@H](OC(F)F)C[C@@H]1c1ccc(C(=O)O)cc1` [Example 29, 4-((2R,4R)-4-(difluoromethoxy)-1-((5-methoxy-7-methyl-1H-indol-4-yl)methyl)piperidin-2-yl)benzoic acid], the IC50 in assay [1] was above 500 nM; at human C3bBb (setting [3]), above 100 nM.
